# Results reported in ChEMBL document CHEMBL6127128, “Discovery of the First-in-Class Dual-Target ROCK/HDAC Inhibitor with Potent Antitumor Efficacy in Vivo That Trigger Antitumor Immunity” (J Med Chem, 2024).
# Calls of active or inactive are those of the source. No cut-off for these calls is given here.
# Legend:
# MDA-MB-231 = experiment: Cytotoxicity against human MDA-MB-231 cells assessed as reduction in cell viability incubated for 72 hrs by SRB assay; type: functional, cell-based; details: MDA-MB-231, 72 h
# [1] = target: Rho-associated protein kinase 2 (Homo sapiens, UniProt O75116); experiment: Inhibition of N-terminal GST-tagged human recombinant wild type ROCK2 (1 to 553 residues) expressed in baculovirus-infected Sf21 cells by HTRF KinEASE assay
# [2] = target: Rho-associated protein kinase 1 (Homo sapiens, UniProt Q13464); experiment: Inhibition of N-terminal GST-tagged human recombinant ROCK1 (17 to 535 residues) expressed in baculovirus-infected Sf9 cells by HTRF KinEASE assay
# 4T1 [3] = experiment: Antitumor immunity against mouse 4T1 cells implanted in Balb/c mouse assessed as increase in CD3+ T cells in tumor tissue at 50 mg/kg, po administered daily for 15 days by flow cytometry; type: functional, organism-based; details: time 15.0 day
# 4T1 [4] = experiment: Antitumor immunity against mouse 4T1 cells implanted in Balb/c mouse assessed as increase in CD4+ T cells in tumor tissue at 50 mg/kg, po administered daily for 15 days by flow cytometry; type: functional, organism-based; details: time 15.0 day
# 4T1 [5] = experiment: Antitumor immunity against mouse 4T1 cells implanted in Balb/c mouse assessed as increase in CD8+ T cells in tumor tissue at 50 mg/kg, po administered daily for 15 days by flow cytometry; type: functional, organism-based; details: time 15.0 day
# 4T1 [6] = experiment: Cytotoxicity against mouse 4T1 cells assessed as reduction in cell viability; type: functional, cell-based
# Sequence of Rho-associated protein kinase 2 (O75116 whole entry, the tested form may be a part): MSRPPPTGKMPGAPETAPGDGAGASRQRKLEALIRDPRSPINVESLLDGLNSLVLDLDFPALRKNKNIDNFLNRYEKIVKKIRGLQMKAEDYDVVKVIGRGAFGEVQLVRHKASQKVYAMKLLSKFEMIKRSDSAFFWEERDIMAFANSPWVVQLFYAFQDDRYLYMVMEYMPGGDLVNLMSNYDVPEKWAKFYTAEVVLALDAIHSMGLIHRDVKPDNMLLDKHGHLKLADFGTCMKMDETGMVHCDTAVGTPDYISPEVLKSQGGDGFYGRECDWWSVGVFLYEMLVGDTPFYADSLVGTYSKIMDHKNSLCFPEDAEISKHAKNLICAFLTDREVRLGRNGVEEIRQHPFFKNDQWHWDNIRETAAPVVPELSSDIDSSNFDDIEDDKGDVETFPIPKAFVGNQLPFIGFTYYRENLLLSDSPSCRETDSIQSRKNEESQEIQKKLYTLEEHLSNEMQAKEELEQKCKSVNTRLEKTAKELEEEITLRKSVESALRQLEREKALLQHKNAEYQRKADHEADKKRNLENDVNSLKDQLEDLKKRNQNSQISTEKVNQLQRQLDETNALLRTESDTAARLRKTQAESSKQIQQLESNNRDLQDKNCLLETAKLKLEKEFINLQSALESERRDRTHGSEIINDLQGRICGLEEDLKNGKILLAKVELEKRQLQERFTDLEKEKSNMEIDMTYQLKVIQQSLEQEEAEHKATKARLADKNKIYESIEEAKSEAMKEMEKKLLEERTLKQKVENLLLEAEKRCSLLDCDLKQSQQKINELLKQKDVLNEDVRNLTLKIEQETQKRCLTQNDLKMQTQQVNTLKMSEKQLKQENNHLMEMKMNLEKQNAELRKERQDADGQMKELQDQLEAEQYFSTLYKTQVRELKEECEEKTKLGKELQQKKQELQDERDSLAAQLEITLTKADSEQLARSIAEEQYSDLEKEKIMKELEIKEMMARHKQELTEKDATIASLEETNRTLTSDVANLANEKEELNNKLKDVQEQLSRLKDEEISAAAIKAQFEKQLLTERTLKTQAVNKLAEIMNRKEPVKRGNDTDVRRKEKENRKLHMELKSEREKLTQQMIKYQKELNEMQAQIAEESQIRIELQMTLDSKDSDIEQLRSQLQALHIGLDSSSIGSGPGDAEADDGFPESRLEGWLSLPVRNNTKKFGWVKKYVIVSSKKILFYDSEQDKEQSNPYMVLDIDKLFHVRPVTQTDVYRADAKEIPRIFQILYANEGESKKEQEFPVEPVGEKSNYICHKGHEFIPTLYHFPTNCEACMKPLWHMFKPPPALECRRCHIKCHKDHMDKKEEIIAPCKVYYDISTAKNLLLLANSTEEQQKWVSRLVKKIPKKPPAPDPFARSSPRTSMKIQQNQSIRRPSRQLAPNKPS
IC50 [1] [nM],SMILES,IC50 (MDA-MB-231) [nM],also measured
,O=C(CCCCCCNC(=O)c1cc2ccc(-c3cn[nH]c3)cc2s1)NO,1260,
8890,CN[C@@H]1C[C@H](c2ccc3c(c2O)C(=O)c2c(C)sc(C(C)=O)c2C3=O)O[C@H](C)[C@H]1O,,
> 1000,COc1cccc(CNC(=O)c2cc3ccc(-c4ccc5[nH]ncc5c4)cc3s2)c1,,
> 1000,COc1cccc(CNC(=O)c2cc3cccc(-c4ccncc4)c3s2)c1,,
> 1000,COc1cccc(CNC(=O)c2cc3c(-c4cccc5cnccc45)cccc3s2)c1,,
> 1000,COc1cccc(CNC(=O)c2cc3cccc(-c4ccc5[nH]ncc5c4)c3s2)c1,,
,O=C(CCCCCCCNC(=O)c1cc2ccc(-c3cn[nH]c3)cc2s1)NO,760,
225,COc1cccc(CNC(=O)c2cc3cccc(-c4cn[nH]c4)c3s2)c1,,inhibition (active/inactive call) [2]: Active
,O=C(CCCCCNC(=O)c1cc2cccc(-c3ccncc3)c2s1)NO,> 10000,
,O=C(CCCCCCCNC(=O)c1cc2c(-c3cn[nH]c3)cccc2s1)NO,> 10000,
,O=C(CCCCCCCNC(=O)c1cc2cccc(-c3ccncc3)c2s1)NO,> 10000,
,O=C(CCCCCCNC(=O)c1cc2cccc(-c3cn[nH]c3)c2s1)NO,9050,
6.75,COc1cccc(CNC(=O)c2cc3cc(-c4cn[nH]c4)ccc3s2)c1,,inhibition (active/inactive call) [2]: Active
,O=C(CCCCCNC(=O)c1cc2c(-c3cn[nH]c3)cccc2s1)NO,3210,
,O=C(CCCCCCCNC(=O)c1cc2cccc(-c3cn[nH]c3)c2s1)NO,> 10000,
,O=C(CCCCCNC(=O)c1cc2ccc(-c3cn[nH]c3)cc2s1)NO,> 10000,
,O=C(CCCCCCNC(=O)c1cc2c(-c3ccncc3)cccc2s1)NO,2900,
,O=C(CCCCCCNC(=O)c1cc2cccc(-c3ccncc3)c2s1)NO,1540,
,O=C(CCCCCCC(=O)Nc1ccccc1)NO [VORINOSTAT],660,Activity (4T1 [3]): Active; Activity (4T1 [4]): Active; Activity (4T1 [5]): Active
,O=C(CCCCCCCNC(=O)c1cc2c(-c3ccncc3)cccc2s1)NO,> 10000,
,O=C(CCCCCCCNC(=O)c1cc2cc(-c3cn[nH]c3)ccc2s1)NO,6420,
> 1000,COc1cccc(CNC(=O)c2cc3cc(-c4ccncc4)ccc3s2)c1,,

IC50 [1] [nM],SMILES,IC50 (MDA-MB-231) [nM],also measured
,O=C(CCCCCNC(=O)c1cc2ccc(-c3ccncc3)cc2s1)NO,> 10000,
> 1000,O=C(CCCCCCCNC(=O)c1cc2cc(-c3ccncc3)ccc2s1)NO,420,IC50 [2]: > 1000 nM
,O=C(CCCCCNC(=O)c1cc2cc(-c3ccncc3)ccc2s1)NO,> 10000,
,O=C(CCCCCCNC(=O)c1cc2ccc(-c3ccncc3)cc2s1)NO,950,
> 1000,COc1cccc(CNC(=O)c2cc3c(-c4ccncc4)cccc3s2)c1,,
> 1000,O=C(CCCCCCCNC(=O)c1cc2ccc(-c3ccncc3)cc2s1)NO,460,IC50 [2]: > 1000 nM
,O=C(CCCCCNC(=O)c1cc2cccc(-c3cn[nH]c3)c2s1)NO,> 10000,
> 1000,COc1cccc(CNC(=O)c2cc3cccc(-c4cccc5cnccc45)c3s2)c1,,
> 1000,COc1cccc(CNC(=O)c2cc3c(-c4cn[nH]c4)cccc3s2)c1,,
,O=C(CCCCCNC(=O)c1cc2cc(-c3cn[nH]c3)ccc2s1)NO,> 10000,
> 1000,COc1cccc(CNC(=O)c2cc3cc(-c4ccc5[nH]ncc5c4)ccc3s2)c1,,
,O=C(CCCCCNC(=O)c1cc2c(-c3ccncc3)cccc2s1)NO,> 10000,
< 1,COc1cccc(CN(CCN(C)C)C(=O)c2nc3ccc(-c4cn[nH]c4)cc3s2)c1,,
> 1000,O=C(CCCCCCNC(=O)c1cc2cc(-c3ccncc3)ccc2s1)NO,130,IC50 [2]: > 1000 nM
7.94,COc1cccc(CNC(=O)c2cc3ccc(-c4cn[nH]c4)cc3s2)c1,,inhibition (active/inactive call) [2]: Active
> 1000,COc1cccc(CNC(=O)c2cc3cc(-c4cccc5cnccc45)ccc3s2)c1,,
,O=C(CCCCCCNC(=O)c1cc2c(-c3cn[nH]c3)cccc2s1)NO,> 10000,
> 1000,COc1cccc(CNC(=O)c2cc3c(-c4ccc5[nH]ncc5c4)cccc3s2)c1,,
,C[C@@H](N)[C@H]1CC[C@H](C(=O)Nc2ccncc2)CC1 [Y-27632],> 10000,IC50 (4T1 [6]): > 10000 nM
296,COc1cccc(CNC(=O)c2cc3ccc(-c4ccncc4)cc3s2)c1,,inhibition (active/inactive call) [2]: Active
> 1000,COc1cccc(CNC(=O)c2cc3ccc(-c4cccc5cnccc45)cc3s2)c1,,
